Read-outs that look alike come from different tables or passages of the source.
What was measured:
Format in all cases: cell-based, human
MDA-MB-453 = test: Compounds cellular killing in MDA-MB-453; conditions: for EC50 / Emax: Homo sapiens; for killing activity compared with 1-B: MDA-MB-453, FIG. 1
Method: Seeding cells MDA-MB-453 (2E3/well) into 96-well plate (Greiner: 655090), 100 ul/well. Incubation at 37° C., 5% CO2, overnight.
Adding the fresh growth-medium containing the varying concentrations of compounds, 50 ul/well.
Incubation at 37° C., 5% CO2, 6 days.
The cell viability detected by Cell Titer-Glo (Promega, G7573). Add 70 µL/well of CellTiter-Glo® Reagent in each well.
Allow the plates to incubate at room temperature for 10 minutes to stabilize luminescent signal.
Analyze with Microplate Reader.

A375 = test: Compounds cellular killing in A375; conditions: Homo sapiens, A375, 6 days, Cell Titer-Glo
Method in brief: (§1)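 A375 (1E3/well) or Calu-6 (2E3/well) cells were seeded overnight, then exposed to varying compound concentrations for 6 days at 37 °C, 5% CO2. Viability was read by CellTiter-Glo luminescence.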

Calu-6 = test: Compounds cellular killing in Calu-6; conditions: Homo sapiens, Calu-6, 6 days, Cell Titer-Glo
Method in brief: as §1

CC[C@@]1(O)C(=O)OCc2c1cc1n(c2=O)Cc2c-1nc1cc(F)c(C)c3c1c2[C@@H](N)CC3 [Example 1-B, reference compound]
EC50 (MDA-MB-453; MDA-MB-453, 6 days, Cell Titer-Glo, read-out: EC50): 0.9 nM
Emax (MDA-MB-453; MDA-MB-453, 6 days, Cell Titer-Glo, read-out: Emax (%)): 99.4%
Emax (A375; A-375): 100%
Emax (Calu-6; Calu-6, […]): 98.4%

CC[C@@]1(O)C(=O)OCc2c1cc1n(c2=O)Cc2c-1nc1cc(F)c(C)c3c1c2[C@@H](N1CCNCC1)CC3 [Example 1-6, (1S,9S)-9-ethyl-5-fluoro-9-hydroxy-4-methyl-1-(piperazin-1-yl)-1,2,3,9,12,15-hexahydro-10H,13H-benzo[de]pyrano[3′,4′:6,7]indolizino[1,2-b]quinoline-10,13-dione]
EC50 (MDA-MB-453; MDA-MB-453, […]): 3.3 nM
Emax (MDA-MB-453; MDA-MB-453, […]): 93.4%
killing activity compared with 1-B (MDA-MB-453): less potent than 1-B

CC[C@@]1(O)C(=O)OCc2c1cc1n(c2=O)Cc2c-1nc1cc(F)c(C)c3c1c2[C@@H](N(C)C)CC3 [Example 1-5, (1S,9S)-1-(dimethylamino)-9-ethyl-5-fluoro-9-hydroxy-4-methyl-1,2,3,9,12,15-hexahydro-10H,13H-benzo[de]pyrano[3′,4′:6,7]indolizino[1,2-b]quinoline-10,13-dione]
EC50 (MDA-MB-453; MDA-MB-453, […]): 1.3 nM
Emax (MDA-MB-453; MDA-MB-453, […]): 93.3%
killing activity compared with 1-B (MDA-MB-453): comparable killing activity to 1-B

CC[C@@]1(O)C(=O)OCc2c1cc1n(c2=O)Cc2c-1nc1cc(F)c(C)c3c1c2[C@@H](N1CCN(C)CC1)CC3 [Example 1-7, (1S,9S)-9-ethyl-5-fluoro-9-hydroxy-4-methyl-1-(4-methylpiperazin-1-yl)-1,2,3,9,12,15-hexahydro-10H,13H-benzo[de]pyrano[3′,4′:6,7]indolizino[1,2-b]quinoline-10,13-dione]
EC50 (MDA-MB-453; MDA-MB-453, […]): 1.2 nM
Emax (MDA-MB-453; MDA-MB-453, […]): 96.8%
killing activity compared with 1-B (MDA-MB-453): comparable killing activity to 1-B

CC[C@@]1(O)C(=O)OCc2c1cc1n(c2=O)Cc2c-1nc1cc(F)c(C)c3c1c2[C@@H](NC(=O)NCCO)CC3 [Example 2-26, 1-((1S,9S)-9-ethyl-5-fluoro-9-hydroxy-4-methyl-10,13-dioxo-2,3,9,10,13,15-hexahydro-1H,12H-benzo[de]pyrano[3′,4′:6,7]indolizino[1,2-b]quinolin-1-yl)-3-(2-hydroxyethyl)urea]
EC50 (A375; A-375): 18.6 nM
Emax (A375; A-375): 97.7%
Emax (Calu-6; Calu-6, […]): 98.4%
EC50 (Calu-6): 5.1 nM

CC[C@@]1(O)C(=O)OCc2c1cc1n(c2=O)Cc2c-1nc1cc(F)c(C)c3c1c2C(CN(C)CCO)CC3 (stereo partly drawn) [Example 2-54, (9S)-9-ethyl-5-fluoro-9-hydroxy-1-(((2-hydroxyethyl)(methyl)amino)methyl)-4-methyl-1,2,3,9,12,15-hexahydro-10H,13H-benzo[de]pyrano[3′,4′:6,7]indolizino[1,2-b]quinoline-10,13-dione]
EC50 (A375; A-375, […]): 0.9 nM
Emax (A375; A-375, […]): 100%
EC50 (Calu-6; Calu-6, […]): 0.2 nM
Emax (Calu-6; Calu-6, […]): 98.2%

CC[C@@]1(O)C(=O)OCc2c1cc1n(c2=O)Cc2c-1nc1cc(Cl)c(C)c3c1c2[C@@H](N)CC3 [Example 1-8, (1S,9S)-1-amino-5-chloro-9-ethyl-9-hydroxy-4-methyl-1,2,3,9,12,15-hexahydro-10H,13H-benzo[de]pyrano[3′,4′:6,7]indolizino[1,2-b]quinoline-10,13-dione]
EC50 (A375; A-375, […]): 1.2 nM
Emax (A375; A-375, […]): 98.8%
EC50 (Calu-6; Calu-6, […]): 0.5 nM
Emax (Calu-6; Calu-6, […]): 98.8%

CC[C@@]1(O)C(=O)OCc2c1cc1n(c2=O)Cc2c-1nc1cc(O)cc3c1c2[C@@H](N)CC3 [Example 1-24, (1S,9S)-1-amino-9-ethyl-5,9-dihydroxy-1,2,3,9,12,15-hexahydro-10H,13H-benzo[de]pyrano[3′,4′:6,7]indolizino[1,2-b]quinoline-10,13-dione methanesulfonate]
EC50 (A375; A-375, […]): 112 nM
Emax (A375; A-375, […]): 96%
EC50 (Calu-6; Calu-6, […]): 118 nM
Emax (Calu-6; Calu-6, […]): 94.4%

CC[C@@]1(O)C(=O)OCc2c1cc1n(c2=O)Cc2c-1nc1cc(O)cc3c1c2[C@@H](NC(=O)CO)CC3 [Example 2-32, N-((1S,9S)-9-ethyl-5,9-dihydroxy-10,13-dioxo-2,3,9,10,13,15-hexahydro-1H,12H-benzo[de]pyrano[3′,4′:6,7]indolizino[1,2-b]quinolin-1-yl)-2-hydroxyacetamide]
EC50 (A375; A-375, […]): 368 nM
Emax (A375; A-375, […]): 93.7%
EC50 (Calu-6; Calu-6, […]): 81.5 nM
Emax (Calu-6; Calu-6, […]): 93.7%

CC[C@@]1(O)C(=O)OCc2c1cc1n(c2=O)Cc2c-1nc1cc(F)c(OC)c3c1c2[C@@H](NC(=O)CO)CC3 [Example 2-4, N-((1S,9S)-9-ethyl-5-fluoro-9-hydroxy-4-methoxy-10,13-dioxo-2,3,9,10,13,15-hexahydro-1H,12H-benzo[de]pyrano[3′,4′:6,7]indolizino[1,2-b]quinolin-1-yl)-2-hydroxyacetamide]
EC50 (A375; A-375, […]): 18 nM
Emax (A375; A-375, […]): 99.3%
EC50 (Calu-6; Calu-6, […]): 4.9 nM
Emax (Calu-6; Calu-6, […]): 99.7%

— patent US20250295798A1, “LIGAND-DRUG CONJUGATE OF EXATECAN ANALOGUE, AND MEDICAL USE THEREOF” (BeiGene Switzerland GmbH, priority 2022, published 2025)
